Reference: paper PMC8002271, “Synthesis and Biological Activity Evaluation of Coumarin-3-Carboxamide Derivatives” (Molecules, 2021)
Values after ≈ are worked out from the molar mass of the structure shown. Like-named read-outs stand apart in the source and are kept apart here.

Tests used:
[1] = test system: S. typhimurium TISTR 2519; experiment: Antibacterial microbroth dilution MIC, S. typhimurium; type: cell-based; conditions: Salmonella enterica, 24 h, read-out: MIC S. typhimurium
Protocol: (§1) The antibacterial activities of coumarin derivatives 10, 12, 13, 14a–g, and 15 were evaluated against five reference standard bacteria, both gram-positive and gram-negative: B. cereus TISTR 2372, B. subtilis TISTR 001, S. aureus TISTR 2392, E. coli TISTR 073, and S. typhimurium TISTR 2519, using a standard microbroth dilution method.
(§2) The MIC values of coumarin derivatives 10, 12, 13, 14a–g, and 15 were determined through the microbroth dilution method in 96-well microtitre plates. The bacterial cultures were prepared from overnight cultures on nutrient broth (NB) at 37 °C for 24 h by diluting in NB compared with 0.5 McFarland. Coumarin derivatives 10, 12, 13, 14a–g, and 15 (5000 µg/mL) were prepared in EtOH, and 128 µg/mL of these were added to the first wells. Two-fold serial dilutions were prepared, and final concentrations of 128 to 1 µg/mL were achieved. The positive controls for penicillin G were determined, with the final concentrations from 128 to 1 µg/mL. In addition, an extra row of EtOH was used as a vehicle control to determine its possible inhibitory activity. Finally, 10 µL of bacterial suspension was added to each well. After the bacteria were incubated at 37 °C for 24 h, the microtitre plates were visually examined for bacterial growth; the growth rate was monitored at the optical density at 600 nm with a microplate reader.

[2] = test system: B. cereus TISTR 2372; experiment: Antibacterial microbroth dilution MIC, B. cereus; type: cell-based; conditions: Bacillus cereus, read-out: MIC B. cereus
Protocol: as §1, §2

[3] = test system: E. coli TISTR 073; experiment: Antibacterial microbroth dilution MIC, E. coli; type: cell-based; conditions: Escherichia coli, read-out: MIC E. coli
Protocol: as §1, §2

[4] = test system: S. aureus TISTR 2392; experiment: Antibacterial microbroth dilution MIC, S. aureus; type: cell-based; conditions: Staphylococcus aureus, read-out: MIC S. aureus
Protocol: as §1, §2

[5] = test system: LLC-MK2 normal cell line; experiment: MTT cell viability assay, LLC-MK2 normal cells; type: cell-based; conditions: Macaca mulatta, read-out: IC50 LLC-MK2
Protocol: (§3) The cell viability assays of coumarin derivatives 10, 12, 13, 14a–g, and 15 were conducted against three cancer cell lines (HepG2, HeLa, and MDA-MB-231) and one normal cell line (LLC-MK2) using an MTT assay.
(§4) Stock solutions of coumarin derivatives 10, 12a, 13, 14a–g, and 15 were prepared in EtOH at a concentration of 5000 µg/mL. Prior to use, the stock solutions were further diluted to 128 µg/mL and added to the first wells. Two-fold serial dilutions were prepared, and final concentrations of 128 to 1 µg/mL in culture medium were achieved. Cells were seeded at a density of 5 × 10^4 cells/well in a 96-well plate and incubated for 16 h, followed by treatment with the test compounds. The control culture contained the carrier solvent of 2.5% dimethyl sulfoxide (DMSO). After 24 h, HepG2, HeLa, MDA-MB-231, and LLC-MK2 cells were then incubated with MTT (500 μg/mL) for 4 h. Then, DMSO was added to dissolve the blue formazan crystals formed, which were formed as a result of the action of cellular oxidoreductase enzymes on the MTT dye. Finally, the optical density at 450 nm was determined using a microplate reader.

[6] = test system: B. subtilis TISTR 001; experiment: Antibacterial microbroth dilution MIC, B. subtilis; type: cell-based; conditions: Bacillus subtilis, read-out: MIC B. subtilis
Protocol: as §1, §2

[7] = test system: HeLa cancer cell line; experiment: MTT cell viability assay, HeLa; type: cell-based; conditions: read-out: IC50 HeLa
Protocol: as §3, §4

[8] = test system: HepG2 cancer cell line; experiment: MTT cell viability assay, HepG2; type: cell-based; conditions: read-out: IC50 HepG2
Protocol: as §3, §4

[9] = test system: Helicobacter pylori; design: method as in PMID 16377035; conditions: cited from earlier work
[10] = Gram-negative, microbroth dilution, 37 °C
[11] = TISTR2372, Gram-positive, microbroth dilution, 37 °C, 24 h
[12] = TISTR073, Gram-negative, microbroth dilution, 37 °C, 24 h
[13] = TISTR2392, Gram-positive, microbroth dilution, 37 °C, 24 h
[14] = LLC-MK2, normal cell line, MTT assay, 24 h treatment
[15] = TISTR001, Gram-positive, microbroth dilution, 37 °C, 24 h
[16] = Homo sapiens, HeLa, 24 h, cancer cell line, MTT assay, 24 h treatment
[17] = cancer cell line, MTT assay, 24 h treatment
[18] = Homo sapiens, HepG2, 24 h, cancer cell line, MTT assay, 24 h treatment

Structure (SMILES): CC(C)=CCc1cc2cc(C(=O)Nc3cc(F)ccc3F)c(=O)oc2cc1O [14e, N-(2,5-Difluorophenyl)-7-hydroxy-6-(3-methylbut-2-en-1-yl)-2-oxo-2H-chromene-3-carboxamide]
- MIC [1, 10]: > 128 µg/mL
- MIC [2, 11]: > 128 µg/mL
- MIC [3, 12]: > 128 µg/mL
- MIC [4, 13]: > 128 µg/mL
- IC50 [5, 14]: 1.33 µM
- MIC [6, 15]: > 128 µg/mL
- IC50 [7, 16]: 0.39 to 0.75 µM
- IC50 [7, 17]: 0.39 µM
- melting point: 248 to 250 °C
- IC50 [8, 18]: 2.62 to 4.85 µM
- IC50 [8, 17]: 2.62 µM

Structure (SMILES): CC(C)=CCc1cc2cc(C(=O)Nc3ccc(Br)cc3)c(=O)oc2cc1O [14d, N-(4-Bromophenyl)-7-hydroxy-6-(3-methylbut-2-en-1-yl)-2-oxo-2H-chromene-3-carboxamide]
- MIC [1, 10]: > 128 µg/mL
- MIC [2, 11]: > 128 µg/mL
- MIC [3, 12]: > 128 µg/mL
- MIC [4, 13]: > 128 µg/mL
- IC50 [5, 14]: > 100 µM
- MIC [6, 15]: > 128 µg/mL
- IC50 [7, 16]: 37.4 µM
- melting point: 276 to 277 °C
- IC50 [8, 18]: 45.8 µM

Structure (SMILES): CC(C)=CCc1cc2cc(C(=O)Nc3ccc(Cl)cc3)c(=O)oc2cc1O [14c, N-(4-Chlorophenyl)-7-hydroxy-6-(3-methylbut-2-en-1-yl)-2-oxo-2H-chromene-3-carboxamide]
- MIC [1, 10]: > 128 µg/mL
- MIC [2, 11]: > 128 µg/mL
- MIC [3, 12]: > 128 µg/mL
- MIC [4, 13]: > 128 µg/mL
- IC50 [5, 14]: 66.8 µM
- MIC [6, 15]: > 128 µg/mL
- IC50 [7, 16]: 14 µM
- melting point: 282 to 283 °C
- IC50 [8, 18]: 30.3 µM

Structure (SMILES): CC(C)=CCc1cc2ccc(=O)oc2cc1O [compound 15, 6-(3-Methyl-2-buteny1)-7-hydroxycoumarin]
- MIC [1]: > 128 µg/mL
- MIC ([2]; TISTR2372, 24 h): > 128 µg/mL
- MIC ([3]; TISTR073, 24 h): > 128 µg/mL
- MIC ([4]; TISTR2392, 24 h): > 128 µg/mL
- IC50 ([5]; LLC-MK2, 24 h): 6.87 µM
- MIC ([6]; TISTR001, 24 h): > 128 µg/mL
- IC50 ([7]; Homo sapiens, HeLa, 24 h): 13.5 µM
- IC50 ([8]; Homo sapiens, HepG2, 24 h): 9.13 µM

Structure (SMILES): COc1cccc2c1C(=O)c1c(O)c3c(c(O)c1C2=O)C[C@@](O)(C(=O)CO)C[C@@H]3O[C@H]1C[C@H](N)[C@H](O)[C@H](C)O1 [Doxorubicin, doxorubicin, reference compound]
- IC50 [5, 14]: 63.5 µM
- IC50 [7, 16]: 1.18 µM
- IC50 [8, 18]: 1.91 µM

Structure (SMILES): CC1(C)C=Cc2cc3cc(C(=O)Nc4ccccc4)c(=O)oc3cc2O1 [compound 12, 8,8-dimethyl-2-oxo-N-phenyl-2H,8H-pyrano[3,2-g]chromene-3-carboxamide]
- MIC [1, 10]: > 128 µg/mL
- MIC [2, 11]: > 128 µg/mL
- MIC [3, 12]: > 128 µg/mL
- MIC [4, 13]: > 128 µg/mL
- IC50 [5, 14]: > 100 µM
- MIC [6, 15]: > 128 µg/mL
- IC50 [7, 16]: > 100 µM
- melting point: 187 to 188 °C
- IC50 [8, 18]: 2.35 µM

Structure (SMILES): CN(C)c1ccc2cc3ccc(N(C)C)cc3nc2c1 [Acridine orange, acridine orange, reference compound]
- IC50 [5, 14]: 82.3 µM
- IC50 [7, 16]: 6.59 µM
- IC50 [8, 18]: 5.72 µM

Structure (SMILES): CC(C)=CCc1cc2cc(C(=O)Nc3ccc(C)cc3)c(=O)oc2cc1O [14f, 7-Hydroxy-6-(3-methylbut-2-en-1-yl)-2-oxo-N-(p-tolyl)-2H-chromene-3-carboxamide]
- MIC [1, 10]: > 128 µg/mL
- MIC [2, 11]: > 128 µg/mL
- MIC [3, 12]: > 128 µg/mL
- MIC [4, 13]: > 128 µg/mL
- IC50 [5, 14]: 85.3 µM
- MIC [6, 15]: > 128 µg/mL
- IC50 [7, 16]: > 100 µM
- melting point: 276 to 277 °C
- IC50 [8, 18]: > 100 µM

Structure (SMILES): CC(C)=CCc1cc2cc(C(=O)O)c(=O)oc2cc1O [compound 13, 3-carboxy-6-(3-methyl-2-butenyl)-7-hydroxy-coumarin]
- MIC [1, 10]: > 128 µg/mL
- MIC [2, 11]: 32 µg/mL (≈ 117 µM)
- MIC [3, 12]: > 128 µg/mL
- MIC [4, 13]: 64 µg/mL (≈ 233 µM)
- IC50 [5, 14]: 38 µM
- MIC [6, 15]: 128 µg/mL (≈ 467 µM)
- IC50 [7, 16]: 26.4 µM
- melting point: 237 to 238 °C
- IC50 [8, 18]: 81.7 µM

Structure (SMILES): O=C(O)c1ccc(NC(=O)c2cc3ccccc3oc2=O)cc1 [4a]
- MIC H. pylori [9]: 1 µg/mL (≈ 3.23 µM)

Structure (SMILES): CC(C)=CCc1cc2cc(C(=O)Nc3ccc(F)cc3)c(=O)oc2cc1O [14b, N-(4-Fluorophenyl)-7-hydroxy-6-(3-methylbut-2-en-1-yl)-2-oxo-2H-chromene-3-carboxamide]
- MIC [1, 10]: > 128 µg/mL
- MIC [2, 11]: > 128 µg/mL
- MIC [3, 12]: > 128 µg/mL
- MIC [4, 13]: > 128 µg/mL
- IC50 [5, 14]: > 100 µM
- MIC [6, 15]: > 128 µg/mL
- IC50 [7, 16]: 0.39 to 0.75 µM
- IC50 [7, 17]: 0.75 µM
- melting point: 259 to 261 °C
- IC50 [8, 18]: 2.62 to 4.85 µM
- IC50 [8, 17]: 4.85 µM

Structure (SMILES): CC(C)=CCc1cc2cc(C(=O)Nc3ccccc3)c(=O)oc2cc1O [14a, 7-Hydroxy-6-(3-methylbut-2-en-1-yl)-2-oxo-N-phenyl-2H-chromene-3-carboxamide]
- MIC [1, 10]: > 128 µg/mL
- MIC [2, 11]: > 128 µg/mL
- MIC [3, 12]: > 128 µg/mL
- MIC [4, 13]: > 128 µg/mL
- IC50 [5, 14]: 0.48 µM
- MIC [6, 15]: > 128 µg/mL
- IC50 [7, 16]: 10.4 µM
- melting point: 258 to 259 °C
- IC50 [8, 18]: 4.33 µM

Structure (SMILES): COc1ccc(NC(=O)c2cc3cc(CC=C(C)C)c(O)cc3oc2=O)cc1 [14g, 7-Hydroxy-N-(4-methoxyphenyl)-6-(3-methylbut-2-en-1-yl)-2-oxo-2H-chromene-3-carboxamide]
- MIC [1, 10]: > 128 µg/mL
- MIC [2, 11]: > 128 µg/mL
- MIC [3, 12]: > 128 µg/mL
- MIC [4, 13]: > 128 µg/mL
- IC50 [5, 14]: > 100 µM
- MIC [6, 15]: > 128 µg/mL
- IC50 [7, 16]: > 100 µM
- melting point: 259 to 261 °C
- IC50 [8, 18]: > 100 µM

Structure (SMILES): CC1(C)S[C@@H]2[C@H](NC(=O)Cc3ccccc3)C(=O)N2[C@H]1C(=O)O [penicillin G, reference compound]
- MIC [1, 10]: 64 µg/mL (≈ 191 µM)
- MIC [2, 11]: 16 µg/mL (≈ 47.8 µM)
- MIC [3, 12]: 32 µg/mL (≈ 95.7 µM)
- MIC [4, 13]: 16 µg/mL (≈ 47.8 µM)
- MIC [6, 15]: 2 µg/mL (≈ 5.98 µM)

Structure (SMILES): CC1(C)C=Cc2cc3cc(C(=O)O)c(=O)oc3cc2O1 [compound 10, 8,8-dimethyl-2-oxo-2H,8H-pyrano[3,2-g]chromene-3-carboxylic acid]
- MIC [1, 10]: > 128 µg/mL
- MIC [2, 11]: 128 µg/mL (≈ 470 µM)
- MIC [3, 12]: > 128 µg/mL
- MIC [4, 13]: 64 µg/mL (≈ 235 µM)
- IC50 [5, 14]: > 100 µM
- MIC [6, 15]: 128 µg/mL (≈ 470 µM)
- IC50 [7, 16]: 80.4 µM
- melting point: 187 to 188 °C
- IC50 [8, 18]: > 100 µM
